Calls of active or inactive are those of the source.
How the values were obtained:
[1] = target: T1, Rho-associated protein kinase 2 (Homo sapiens, UniProt O75116); test: Inhibition of N-terminal His10-StrepII tagged human ROCK2 catalytic domain (1 to 553 residues) expressed in Sf9 insect cells by HTRF assay
MDA-MB-231 [2] = test: Antimetastatic activity in human MDA-MB-231 cells assessed as increase in nuclear scales at 5 uM incubated for 24 hrs by FITC-conjugated phalloidin staining based confocal microscopic analysis; assay type: functional, cell-based
MDA-MB-231 [3] = test: Antimetastatic activity in human MDA-MB-231 cells assessed as appearance of disordered and sparse actin filament at 5 uM incubated for 24 hrs by SEM analysis; assay type: functional, cell-based
MDA-MB-231 [4] = test: Antimetastatic activity in human MDA-MB-231 cells assessed as effect on cell shapes at 5 uM incubated for 24 hrs by SEM analysis; assay type: functional, cell-based
SK-OV-3 [5] = test: Inhibition of cell invasion in human SK-OV-3 cells at 1.25 to 10 uM incubated for 48 hrs by crystal violet staining based transwell assay; assay type: functional; conditions: dose 1.25-10 µM
SK-OV-3 [6] = test: Antiproliferative activity against human SK-OV-3 cells assessed as suppression of cell growth incubated for 72 hrs by SRB assay; assay type: functional, cell-based; conditions: SK-OV-3, 72 h
MDA-MB-231 [7] = test: Downregulation of phosphorylated STAT3 protein expression in human MDA-MB-231 cells at 0.5 uM incubated for 24 hrs by Western blot analysis; assay type: functional, cell-based
[8] = AUC (0 to t) in ICR mouse at 15 mg/kg, iv administered as single dose and measured for 8 hrs by LC-MS/MS analysis; assay type: ADME, organism-based; set-up: time 8 hrs, dose 15 mg/kg, route iv; conditions: in vivo
[9] = target: Inhibitor of nuclear factor kappa-B kinase subunit beta (Homo sapiens, UniProt O14920); test: Inhibition of IKKbeta (unknown origin)
[10] = target: Signal transducer and activator of transcription 3 (Homo sapiens) (UniProt P40763); test: Inhibition of STAT3 transcriptional activity in human MDA-MB-231 cells assessed as reduction in TWIST1 mRNA level at 5 uM incubated for 24 hrs by qRT-PCR analysis; assay type: cell-based
Chain of Signal transducer and activator of transcription 3 (Homo sapiens) (P40763 whole entry): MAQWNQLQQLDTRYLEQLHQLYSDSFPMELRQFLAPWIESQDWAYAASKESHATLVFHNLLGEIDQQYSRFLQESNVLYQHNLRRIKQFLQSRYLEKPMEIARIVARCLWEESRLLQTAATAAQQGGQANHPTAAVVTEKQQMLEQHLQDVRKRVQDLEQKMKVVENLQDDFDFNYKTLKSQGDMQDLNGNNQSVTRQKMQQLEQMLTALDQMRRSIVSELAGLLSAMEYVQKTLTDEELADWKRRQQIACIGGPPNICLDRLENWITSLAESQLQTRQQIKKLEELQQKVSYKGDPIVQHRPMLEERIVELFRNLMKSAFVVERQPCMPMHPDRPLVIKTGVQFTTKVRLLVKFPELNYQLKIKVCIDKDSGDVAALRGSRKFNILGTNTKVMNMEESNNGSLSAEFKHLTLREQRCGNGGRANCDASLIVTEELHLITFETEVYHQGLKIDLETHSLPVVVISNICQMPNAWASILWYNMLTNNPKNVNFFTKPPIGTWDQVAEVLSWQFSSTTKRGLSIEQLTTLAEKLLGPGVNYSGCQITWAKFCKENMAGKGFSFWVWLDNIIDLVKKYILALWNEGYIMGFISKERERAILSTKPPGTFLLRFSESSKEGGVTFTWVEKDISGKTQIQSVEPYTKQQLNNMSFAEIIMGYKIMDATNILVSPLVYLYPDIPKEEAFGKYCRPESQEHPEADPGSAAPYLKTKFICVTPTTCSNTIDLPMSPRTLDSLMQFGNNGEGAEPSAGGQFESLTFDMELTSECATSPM

MDA-MB-231 [11] = test: Inhibition of IL-6 stimulated cell invasion in human MDA-MB-231 cells at 5 uM incubated for 24 hrs by crystal violet staining based transwell assay; assay type: functional
[12] = target: T1, Rho-associated protein kinase 2; test: Binding affinity to wild type N-terminal His10-StrepII tagged human ROCK2 catalytic domain (1 to 553 residues) expressed in Sf9 insect cells assessed as change in melting temperature at 50 uM by SYPRO orange dye based thermal shift assay
[13] = tested on: Rho-associated protein kinase 2 (Homo sapiens), O75116 [K121A]; test: Binding affinity to N-terminal His10-StrepII tagged human ROCK2 K121A mutant catalytic domain (1 to 553 residues) expressed in Sf9 insect cells assessed as change in melting temperature at 50 uM by SYPRO orange dye based thermal shift assay
Chain of Rho-associated protein kinase 2 (Homo sapiens), O75116 [K121A] (O75116 whole entry K121A, the tested form may be a part): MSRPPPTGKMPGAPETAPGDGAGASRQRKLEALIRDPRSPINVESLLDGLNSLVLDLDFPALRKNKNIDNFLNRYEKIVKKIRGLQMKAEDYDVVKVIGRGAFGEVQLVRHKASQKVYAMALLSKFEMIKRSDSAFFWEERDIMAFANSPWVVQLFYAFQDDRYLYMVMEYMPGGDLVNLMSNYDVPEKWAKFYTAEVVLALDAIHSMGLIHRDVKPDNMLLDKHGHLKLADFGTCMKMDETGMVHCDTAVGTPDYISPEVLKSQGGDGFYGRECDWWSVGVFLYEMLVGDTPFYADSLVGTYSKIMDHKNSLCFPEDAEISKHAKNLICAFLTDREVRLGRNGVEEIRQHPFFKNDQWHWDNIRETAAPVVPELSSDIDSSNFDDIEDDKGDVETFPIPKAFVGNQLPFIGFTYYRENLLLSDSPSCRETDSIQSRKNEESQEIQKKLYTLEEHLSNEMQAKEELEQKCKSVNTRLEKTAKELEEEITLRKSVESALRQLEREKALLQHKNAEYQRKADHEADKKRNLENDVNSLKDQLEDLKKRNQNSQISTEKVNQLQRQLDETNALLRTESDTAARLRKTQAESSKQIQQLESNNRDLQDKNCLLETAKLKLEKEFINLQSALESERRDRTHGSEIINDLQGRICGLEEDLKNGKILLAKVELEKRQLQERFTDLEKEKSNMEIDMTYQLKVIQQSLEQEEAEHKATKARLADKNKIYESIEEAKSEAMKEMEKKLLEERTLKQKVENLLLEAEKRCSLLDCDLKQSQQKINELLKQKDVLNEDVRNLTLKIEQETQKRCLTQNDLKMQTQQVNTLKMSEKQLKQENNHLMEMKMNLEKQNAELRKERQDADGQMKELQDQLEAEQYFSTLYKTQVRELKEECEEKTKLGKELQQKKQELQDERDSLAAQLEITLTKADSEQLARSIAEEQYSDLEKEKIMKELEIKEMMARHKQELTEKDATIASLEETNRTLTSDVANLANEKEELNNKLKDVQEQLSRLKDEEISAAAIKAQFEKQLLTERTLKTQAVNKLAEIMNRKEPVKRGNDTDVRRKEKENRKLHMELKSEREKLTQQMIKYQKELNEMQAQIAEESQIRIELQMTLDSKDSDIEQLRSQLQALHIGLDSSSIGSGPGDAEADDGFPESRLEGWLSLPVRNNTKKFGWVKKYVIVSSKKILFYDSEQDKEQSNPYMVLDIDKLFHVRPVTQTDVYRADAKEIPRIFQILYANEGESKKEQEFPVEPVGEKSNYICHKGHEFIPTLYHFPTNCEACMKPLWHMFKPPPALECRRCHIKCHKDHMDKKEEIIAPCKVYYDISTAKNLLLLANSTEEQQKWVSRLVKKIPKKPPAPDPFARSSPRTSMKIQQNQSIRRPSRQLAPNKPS

[14] = tested on: Rho-associated protein kinase 2 (Homo sapiens), O75116 [D232A]; test: Binding affinity to N-terminal His10-StrepII tagged human ROCK2 D232A mutant catalytic domain (1 to 553 residues) expressed in Sf9 insect cells assessed as change in melting temperature at 50 uM by SYPRO orange dye based thermal shift assay
Chain of Rho-associated protein kinase 2 (Homo sapiens), O75116 [D232A] (O75116 whole entry D232A, the tested form may be a part): as the sequence (O75116 whole entry K121A, the tested form may be a part) above, with A121K, D232A counted along it

[15] = target: High affinity nerve growth factor receptor (Homo sapiens) (UniProt P04629); test: Inhibition of human recombinant TRKA at 125 nM
Chain of High affinity nerve growth factor receptor (Homo sapiens) (P04629 33-796 limits assumed): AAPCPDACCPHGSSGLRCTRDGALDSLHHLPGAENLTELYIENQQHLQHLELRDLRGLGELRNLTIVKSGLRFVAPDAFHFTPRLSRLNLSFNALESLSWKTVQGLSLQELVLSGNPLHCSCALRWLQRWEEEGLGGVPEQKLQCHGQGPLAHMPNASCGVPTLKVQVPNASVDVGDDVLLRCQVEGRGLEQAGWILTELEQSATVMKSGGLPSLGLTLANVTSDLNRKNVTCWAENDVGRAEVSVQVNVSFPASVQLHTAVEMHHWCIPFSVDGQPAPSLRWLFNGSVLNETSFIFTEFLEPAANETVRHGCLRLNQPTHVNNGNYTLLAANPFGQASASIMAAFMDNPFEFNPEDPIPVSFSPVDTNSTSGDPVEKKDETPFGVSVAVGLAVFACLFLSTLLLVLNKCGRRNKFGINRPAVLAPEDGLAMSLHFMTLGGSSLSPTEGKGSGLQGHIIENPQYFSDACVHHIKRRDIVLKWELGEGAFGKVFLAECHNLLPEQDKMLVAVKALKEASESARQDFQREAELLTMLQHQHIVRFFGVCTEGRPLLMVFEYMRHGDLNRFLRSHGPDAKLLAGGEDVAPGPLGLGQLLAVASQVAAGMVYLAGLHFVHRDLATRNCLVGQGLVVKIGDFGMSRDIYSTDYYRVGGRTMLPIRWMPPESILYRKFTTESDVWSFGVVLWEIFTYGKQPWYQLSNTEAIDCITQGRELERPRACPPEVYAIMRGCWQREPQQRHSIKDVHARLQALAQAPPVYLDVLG

[16] = target: Ribosomal protein S6 kinase alpha-6 (Homo sapiens) (UniProt Q9UK32); test: Inhibition of human recombinant RSK4 at 125 nM
Chain of Ribosomal protein S6 kinase alpha-6 (Homo sapiens) (Q9UK32 whole entry): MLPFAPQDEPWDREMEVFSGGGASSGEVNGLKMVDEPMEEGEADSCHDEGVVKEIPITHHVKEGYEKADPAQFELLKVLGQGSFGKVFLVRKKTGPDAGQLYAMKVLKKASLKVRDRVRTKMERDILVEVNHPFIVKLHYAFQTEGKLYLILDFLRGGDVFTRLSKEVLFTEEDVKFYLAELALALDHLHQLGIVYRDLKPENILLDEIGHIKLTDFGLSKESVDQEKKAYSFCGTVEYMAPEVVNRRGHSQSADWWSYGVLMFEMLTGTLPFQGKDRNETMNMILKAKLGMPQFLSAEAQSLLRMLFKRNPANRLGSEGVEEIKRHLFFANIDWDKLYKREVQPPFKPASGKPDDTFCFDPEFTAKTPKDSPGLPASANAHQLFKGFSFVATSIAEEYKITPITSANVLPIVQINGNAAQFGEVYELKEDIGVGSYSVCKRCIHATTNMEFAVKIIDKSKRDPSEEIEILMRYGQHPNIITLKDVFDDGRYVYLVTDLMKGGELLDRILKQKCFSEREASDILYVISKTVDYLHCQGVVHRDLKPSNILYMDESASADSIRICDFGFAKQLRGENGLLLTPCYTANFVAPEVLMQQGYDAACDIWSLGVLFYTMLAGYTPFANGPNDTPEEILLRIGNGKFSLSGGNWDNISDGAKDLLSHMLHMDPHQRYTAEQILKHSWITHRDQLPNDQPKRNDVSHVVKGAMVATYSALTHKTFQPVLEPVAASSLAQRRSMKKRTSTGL

[17] = target: Serine/threonine-protein kinase Chk1 (Homo sapiens) (UniProt O14757); test: Inhibition of human recombinant CHK1 at 125 nM
[18] = target: 3-phosphoinositide-dependent protein kinase 1 (Homo sapiens) (UniProt O15530); test: Inhibition of human recombinant PDK1 at 125 nM

O=C1NCc2c1c1c3cc(O)ccc3[nH]c1c1[nH]c3ccccc3c21
139 nM: IC50 [9]
4.44 µM: IC50 (SK-OV-3 [6])
6240 ng·h/mL: AUC(0-t) at 8 h [8]
active: Activity (MDA-MB-231 [2]) | Activity (MDA-MB-231 [3]) | Activity (MDA-MB-231 [4]) | inhibition (SK-OV-3 [5]) | Activity (MDA-MB-231 [7]) | inhibition [10] | inhibition (MDA-MB-231 [11]) | Activity [12] | inhibition [15] | inhibition [16] | inhibition [17] | inhibition [18]
inactive: Activity [13] | Activity [14]
6 nM: IC50 [1]
